Test results: PubChem BioAssay (NCI)
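Grown in 96-well plates, cells were treated for 48 hours with each compound at five concentrations. Insufficient inhibition: endpoint recorded as highest concentration tested. Abbreviation: GI50, concentration required for 50% inhibition of growth. TGI marks complete inhibition of growth.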

Tests used:
Assay in all cases: NCI anticancer screen, dose series, 48 h
CCRF-CEM leukemia = system: CCRF-CEM leukemia
COLO 205 colon = system: COLO 205 colon
HOP-92 NSCLC = system: HOP-92 NSCLC
HT29 colon = system: HT29 colon
IGROV1 ovarian = system: IGROV1 ovarian
NCI-H23 lung = system: NCI-H23 lung
NCI-H460 lung = system: NCI-H460 lung
OVCAR-4 ovarian = system: OVCAR-4 ovarian
SK-MEL-5 melanoma = system: SK-MEL-5 melanoma
SNB-75 CNS = system: SNB-75 CNS

Row | Structure (SMILES) | TGI (CCRF-CEM leukemia) | TGI (COLO 205 colon) | TGI (HOP-92 NSCLC) | TGI (HT29 colon) | TGI (IGROV1 ovarian) | TGI (NCI-H23 lung) | TGI (NCI-H460 lung) | TGI (OVCAR-4 ovarian) | TGI (SK-MEL-5 melanoma) | TGI (SNB-75 CNS) | GI50 (CCRF-CEM leukemia) | GI50 (COLO 205 colon) | GI50 (HOP-92 NSCLC) | GI50 (HT29 colon) | GI50 (IGROV1 ovarian) | GI50 (NCI-H23 lung) | GI50 (NCI-H460 lung) | GI50 (OVCAR-4 ovarian) | GI50 (SK-MEL-5 melanoma) | GI50 (SNB-75 CNS)
1 | O=C1C[C@H](c2ccccc2)C2(C(=O)c3ccccc3C2=O)[C@@H](c2ccccc2)C1 | > 100 µM | 53.6 µM | 90.9 µM | > 100 µM | > 100 µM | > 100 µM | > 100 µM | > 100 µM | 31 µM | > 100 µM | – | – | – | – | – | – | – | – | – | –
2 | Oc1c(I)cc(I)cc1CNCCCN(Cc1ccccn1)Cc1ccccn1 | 50 µM | 5.99 µM | 2.48 µM | 10.2 µM | 1.65 µM | 3.22 µM | 2.78 µM | 2.31 µM | 1.59 µM | 4.32 µM | 1.54 µM | 1.65 µM | 0.985 µM | 1.74 µM | 0.866 µM | 1.16 µM | 1.2 µM | 1.02 µM | 0.886 µM | 0.836 µM
3 | COc1ccc(C2C(C(=O)O)=C(COC(C)=O)Oc3cc4c(cc32)OCO4)cc1 (stereo not given) | > 100 µM | > 100 µM | > 100 µM | > 100 µM | > 100 µM | > 100 µM | > 100 µM | > 100 µM | > 100 µM | > 100 µM | – | – | – | – | – | – | – | – | – | –
